# Measured values taken from article PMC7570910, “8-Hydroxyquinoline Glycoconjugates Containing Sulfur at the Sugar Anomeric Position—Synthesis and Preliminary Evaluation of Their Cytotoxicity” (Molecules, 2020).
# What was measured:
# MCF-7 cells = experiment: MTT cytotoxicity assay, MCF-7; format: cell-based; details: Homo sapiens, MCF7, incubation time 72 h, mean ± SD (n = 3)
# Method: In vitro cytotoxicity studies of the obtained building blocks and glycoconjugates were carried out on cell lines characterized by the high expression of GLUT transporters and the strongly changed glucose metabolism (strong Warburg effect). […] Cytotoxicity was evaluated using the MTT assay.
# The human cell line MCF-7 was obtained from collections at the Maria Sklodowska-Curie Memorial Cancer Center and Institute of Oncology, branch in Gliwice, Poland. […] The culture media were purchased from EuroClone and HyClone. Fetal bovine serum (FBS) was delivered by EURx, Poland, and Antibiotic Antimycotic Solution (100×) by Sigma-Aldrich, Germany. The cells were cultured under standard conditions at 37 °C in a humidified atmosphere at 5% CO2.
# The viability of the cells was determined using an MTT (3-[4,5–dimethylthiazol-2-yl]-2,5-diphenyltetrazolium bromide) test (Sigma-Aldrich). Stock solutions of tested compounds were prepared in DMSO and diluted with the appropriate volumes of the growth medium directly before the experiment. […] The cell cultures were incubated for 24 h at 37 °C in a humidified atmosphere of 5% CO2. Then, the culture medium was removed, replaced with the solution of the tested compounds in medium with varying concentrations, and incubated for further 24 h or 72 h. After that, the medium was removed, and the MTT solution (50 µL, 0.5 mg/mL in PBS) was added. After 3 h of incubation, the MTT solution was removed, and the precipitated formazan was dissolved in DMSO. Finally, the absorbance at the 570 nm wavelength was measured spectrophotometrically with the plate reader. The experiment was conducted in at least three independent iterations with four technical repetitions. The IC50 values were calculated using CalcuSyn software (version 2.0, Biosoft, Cambridge, UK).
# [1] = molecular target: T1, β-galactosidase from Aspergillus oryzae (Aspergillus oryzae, UniProt Q2UCU3); experiment: Glycoconjugate stability under the action of β-galactosidase (hydrolysis followed by TLC); format: in vitro ADME; details: 0.089 unit enzyme, 5 mM substrate, phosphate-citrate buffer pH 4.5, 30 °C, TLC at 10 min to 24 h
# T1 construct: purchased Sigma-Aldrich G5160
# Method: As part of the research, the effect of introducing a sulfur atom into the anomeric position of sugar was assessed. […] This was particularly evident for the 8-HQ derivatives 51 and 52, for which the cytotoxic activity was about twice as high as that of their structural counterparts with an anomeric oxygen atom (Figure 3). Unfortunately, an increase in cytotoxicity for glycoconjugates containing anomeric sulfur was observed, both to neoplastic cells and to healthy cells. […] In order to verify this assumption, two galactoconjugates 56 and 64 (being the deprotected counterparts of galactoconjugates 52 and 60) and their two analogs with anomeric oxygen were chosen and subjected to hydrolysis reactions using β-galactosidase from Aspergillus oryzae.
# 8-Hydroxyquinoline Glycoconjugates Containing
# Sulfur at the Sugar Anomeric Position - Synthesis and Preliminary Evaluation of Their Cytotoxicity […]
# The following reagents were pipetted into a test tube: 0.4 mL of 20 mM Phosphate-Citrate Buffer (C) and 0.5 mL of the appropriate 10 mM Substrate Solution ( D1-D4), which then thoroughly mixed and equilibrated to 30 °C with a thermoblock. […] The progress of the reactions was monitored by thin-layer chromatography (TLC) in a CHCl3:CH3OH (5:1) eluents system. […]
# HCT-116 cells = experiment: MTT cytotoxicity assay, HCT-116; format: cell-based; details: Homo sapiens, incubation time 24 h, mean ± SD (n = 3)
# T1 sequence (Q2UCU3 19-1005): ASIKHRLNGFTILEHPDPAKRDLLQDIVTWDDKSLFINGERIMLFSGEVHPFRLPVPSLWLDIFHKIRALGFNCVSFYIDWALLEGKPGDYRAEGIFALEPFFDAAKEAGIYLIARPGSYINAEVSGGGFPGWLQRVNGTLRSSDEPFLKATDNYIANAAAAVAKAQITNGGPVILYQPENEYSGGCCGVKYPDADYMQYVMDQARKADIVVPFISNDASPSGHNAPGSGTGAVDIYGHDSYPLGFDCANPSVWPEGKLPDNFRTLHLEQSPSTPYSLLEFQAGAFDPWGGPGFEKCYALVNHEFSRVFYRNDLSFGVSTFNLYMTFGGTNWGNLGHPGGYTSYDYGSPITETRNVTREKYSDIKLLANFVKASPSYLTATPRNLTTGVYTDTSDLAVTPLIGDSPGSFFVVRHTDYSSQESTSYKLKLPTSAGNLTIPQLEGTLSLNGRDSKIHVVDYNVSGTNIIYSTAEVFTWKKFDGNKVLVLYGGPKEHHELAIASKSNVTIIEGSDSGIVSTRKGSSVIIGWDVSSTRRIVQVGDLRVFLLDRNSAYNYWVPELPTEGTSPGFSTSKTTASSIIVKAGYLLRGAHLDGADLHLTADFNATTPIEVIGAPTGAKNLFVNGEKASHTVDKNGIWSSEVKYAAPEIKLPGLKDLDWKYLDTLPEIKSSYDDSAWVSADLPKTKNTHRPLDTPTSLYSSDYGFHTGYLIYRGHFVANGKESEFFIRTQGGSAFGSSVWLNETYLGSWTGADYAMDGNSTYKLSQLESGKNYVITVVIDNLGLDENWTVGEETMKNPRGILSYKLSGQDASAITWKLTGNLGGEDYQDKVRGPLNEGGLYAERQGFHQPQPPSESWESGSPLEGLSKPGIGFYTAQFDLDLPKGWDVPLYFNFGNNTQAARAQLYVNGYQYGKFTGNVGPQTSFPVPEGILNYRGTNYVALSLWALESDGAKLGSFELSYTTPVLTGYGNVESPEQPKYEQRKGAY
compound,measurement,setting,value
OC[C@H]1O[C@@H](SCc2cn(CCCOc3cccc4cccnc34)nn2)[C@H](O)[C@@H](O)[C@H]1O [Compound 64],IC50,MCF-7 cells,> 800 µM
same,Hydrolysis in the presence of β-galactosidase,[1],did not undergo hydrolysis
same,IC50,HCT-116 cells,> 800 µM
